# Reference: patent US5972950A, “1,2-diarylmethylene derivatives, their methods of preparation and their uses in therapeutics” (Laboratories UPSA, priority 1996, dated 1999)
# How the values were obtained:
# [1] = test system: carrageenan-induced paw oedema; assay: oedema with carrageenan (anti-inflammatory activity) in rats; format: in vivo; details: rat, oral, oedema volume 3 hours after carrageenan, n=6
# Protocol: Anti-Inflammatory Activity
# The anti-inflammatory activity is evaluated in rats by the test of oedema with carrageenan. The product is administered orally at a rate of 2.5 ml/100 g (n=6 animals per dose) 2 hours 30 minutes after a water overload taken orally (2.5 ml/ 100 g). One hour after administration of the product, the oedema is induced by plantar subcutaneous injection of aqueous 2% carrageenan solution.
# COX-1 = assay: inhibition of COX-1 enzymatic activity (PGE2 by EIA); format: biochemical; details: purified enzyme from ram seminal vesicles, mean ± standard deviation, 4 determinations
# Protocol: (§1) Inhibition Of The COX-1 and COX-2 Enzymatic Activities The molecule studied is preincubated for 10 minutes at 25° C. with 2 U of COX-1 (purified enzyme from ram seminal vesicles) or 1 U of COX-2 (purified enzyme from ewe placenta). Arachidonic acid (6 μM for COX-1, 4, μM for COX-2) is added to the reaction medium and incubation is carried out for 5 minutes at 25° C. When incubation has ended, the enzymatic reaction is stopped by the addition of 1 N HCl and the PGE2 produced is determined by EIA. The results are expressed as the percentage inhibition of the COX-1 and COX-2 enzymatic activities and correspond to mean (±) standard deviations from the average of 4 determinations.
# [2] = test system: pain response in kaolin arthritis; assay: arthritis with kaolin (analgesic activity) in rats; format: in vivo; details: rat, oral, pain response 5 hours 30 minutes after administration, n=10
# Protocol: The analgesic activity is evaluated in rats by the test of arthritis with kaolin. Thirty minutes after intra-articular administration of an aqueous 10% suspension of kaolin, the product is administered orally at a rate of 1 ml/100 g (n=10 animals per dose).
# COX-2 = assay: inhibition of COX-2 enzymatic activity (PGE2 by EIA); format: biochemical; details: purified enzyme from ewe placenta, mean ± standard deviation, 4 determinations
# Protocol: as §1
Structure (SMILES),Anti-inflammatory activity % inhibition ([1]; 30 mg/kg) [%],% inhibition of COX-1 activity (COX-1; 10^-5 M) [%],% inhibition of COX-1 activity (COX-1; 10^-7 M) [%],Analgesic activity % inhibition ([2]; 30 mg/kg) [%],% inhibition of COX-2 activity (COX-2; 10^-5 M) [%],% inhibition of COX-2 activity (COX-2; 10^-7 M) [%],Anti-inflammatory activity % inhibition ([1]; 100 mg/kg) [%],Analgesic activity % inhibition ([2]; 100 mg/kg) [%]
"CCOC(=O)/C(CCO)=C(/c1ccc(S(C)(=O)=O)cc1)c1cc(Cl)cc(Cl)c1 [Example 14, Ethyl (Z)-3-(3,5-dichlorophenyl)-3-(4-methanesulphonylphenyl)-2-(2-hydroxyethyl)prop-2-enoate]",28.9 ± 4.5,0 ± 0,0 ± 0,45.8 ± 10.9,80 ± 2,16 ± 9,–,–
"CS(=O)(=O)c1ccc(/C(=C(\CCO)C(=O)[O-])c2ccc(Cl)c(Cl)c2)cc1.[Na+] [Example 27, Sodium (Z)-3-(3,4-dichlorophenyl)-3-(4-methanesulphonylphenyl)-2-(2-hydroxyethyl)prop-2-enoate]",–,–,–,–,–,–,32.4 ± 8.2,63.6 ± 13.2
